In patent US20230124492A1, “COMPOSITIONS AND METHODS FOR SUBSTITUTED 7-(PIPERAZIN-1-YL)PYRAZOLO[1,5-A]PYRIMIDINE ANALOGS AS INHIBITORS OF KRAS” (The Board of Regents of the University of Texas System, priority 2019, published 2023):

Key:
wild type (WT) KRAS = wild type (WT) KRAS (Homo sapiens, UniProt P01116); test: Intrinsic fluorescence (IF) binding affinity, WT KRAS bound to GNP
Description: (§1) FIGS. 2A-I illustrates the measurements of binding affinity of ligands to wild type (WT) or G120 KRAS bound to the GTP analogue GNP and, for selected exemplary embodiments, effect of ligands on the rate of SOS-mediated nucleotide exchange reaction. Binding affinity was determined using intrinsic fluorescence, which made use of the ligands' intrinsic fluorescence and the accompanying change (decrease or increase in intensity) upon binding to KRAS.
as §1, with “G12D” for “G120”, “reaction,” for “reaction.”
(§2) Solutions of ligand (0 to 50 μM) are mixed with equal volumes of KRAS (fixed concentration) and fluorescence spectra are obtained. The difference spectra (between KRAS-ligand mixture and ligand alone) are plotted and the area under the curve is obtained. Kd is estimated from the plot of area versus the ligand concentration. SOS-mediated nucleotide rate was monitored using the fluorescence intensity increase of BODIPY-GTP (B GTP) as it displaces GDP from KRAS. The reaction mixture (100 μL, 96 well plate) contained 0.5 μM K-Ras-GDP, 0.5 μm B-GTP, 0.5 μM SOS and varying concentrations of ligands (0 to 25 μM). B-GTP and SOS mixture was added just before measurements(excitation: 485 nm, emission: 510 nm; TECAN Infinite 200 plate reader). The reaction was monitored for 1 hour. The experiments were conducted with minimal light, Fluorescence intensities were normalized with respect to the value obtained at 120 s and the traces were fit with exponential function (Igor Pro, Wavemetrics).
(§3) Note: For FIGS. 1A-H 1 (as well as one of the curves in FIGS. 2A-I), dissociation constant (Kd) was determined using either Microscale Thermophoresis (MST) or Intrinsic Fluorescence (IF) assay. MST assay uses fluorescence to monitor movement of molecules in response to temperature gradient created by infrared laser.

G12D KRAS [1] = target: T1, G12D KRAS (Homo sapiens, UniProt P01116, G12D); test: Microscale thermophoresis (MST) Kd, G12D KRAS; type: binding
T1 sequence (P01116 1-188 isoform P01116-2 G12D): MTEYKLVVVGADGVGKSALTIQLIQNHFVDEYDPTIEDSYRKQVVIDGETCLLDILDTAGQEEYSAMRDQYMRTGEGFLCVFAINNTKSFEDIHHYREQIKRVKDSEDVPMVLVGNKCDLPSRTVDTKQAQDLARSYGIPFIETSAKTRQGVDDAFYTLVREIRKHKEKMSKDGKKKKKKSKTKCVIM
Description: (§4) Measurement of compound binding affinity to KKRAS using microscale thermophoresis (MST). MST is based on the movement of molecules in response to temperature gradient. […] KRAS was buffer-exchanged in the labeling buffer (40 mM HEPES, pH 7.5, 5 mM MgCl2, and 500 mM NaCl) using a spin column (provided in the kit) The concentration of the eluted protein was adjusted (10 to 20 μM) and 2-3 fold concentration of the dye (in labeling buffer) was added (200 μL final volume), The solution was incubated for 30 minutes at room temperature in the dark. Labeled KRAS was purified using the column provided in the kit or MST measurements, 16 point serial dilutions of ligands were made in MST Assay Buffer (40 mM HEPES, pH 7.5, 5 mM MgCl2, 100 mM NaCl+0.05% Tween-20+2-4% DMSO) and added to 100 nM KRAS. The solutions were loaded in capillaries and measurements were done using 20% LED power and 40% MST power. The data were fit in Igor Pro using Hill equation or the function in the instrument software.
(§5) Microscale thermophoresis (MST) assays were used to measure the affinity of lead compound analogs for KRAS. In a typical experiment, 100 nM KRAS labeled with a dye amine-reactive red NT-647 from NanoTemper) was mixed with different concentrations of ligand and incubated in a binding buffer (40 mM HEPES, pH 7.5, 5 mM MgCl2, 150 mM NaCl, 0.05% polysorbate 20, and 2% DMSO) at room temperature for 10 min before being loaded into a capillary. Thermophoresis is carried out and dissociation constant calculated by monitoring changes in fluorescence intensity. A monolith NT.115 Reader from NanoTemper can be used for MST experiments, with 40% MST and 20% LED power.
as §3

WT KRAS [2] = target: T2, WT KRAS (Homo sapiens, UniProt P01116); test: SOS-mediated nucleotide exchange assay, WT KRAS; type: biochemical; settings: for SOS-mediated nucleotide exchange WT, single-dose test (effect / No effect): 25 microMolar ligand; for EC50: SOS-mediated nucleotide exchange, dose-response
T2 sequence (P01116 1-188 isoform P01116-2): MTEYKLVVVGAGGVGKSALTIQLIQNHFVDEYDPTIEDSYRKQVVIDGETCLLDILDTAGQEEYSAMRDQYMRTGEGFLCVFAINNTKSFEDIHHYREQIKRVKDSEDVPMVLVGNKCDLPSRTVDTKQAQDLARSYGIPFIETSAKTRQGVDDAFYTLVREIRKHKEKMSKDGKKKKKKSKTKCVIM
Description: (§6) In other experiments, the compounds disclosed herein can be tested for their abilities to affect rates of intrinsic and SOS-catalyzed nucleotide exchange and release. These assays use fluorescently-labeled BODIPY-GDP (BGDP) and BODIPY-GTP (BGTP), which have increased fluorescence intensity when bound to KRAS. Rate of nucleotide exchange is determined by rate of increase in fluorescence after BGTP is added to GDP-KRAS in the absence or presence of SOS Rate of nucleotide release is determined from rate of decrease in, fluorescence when excess GTP is added to KRAS loaded with BGDP in the presence or absence of SOS, where SOS is “Sons of Sevenless” referring to a set of genes encoding guanine nucleotide exchange factors.
as §2

G12D KRAS [3] = target: T1, G12D KRAS; test: Intrinsic fluorescence (IF) binding affinity, G12D KRAS bound to GNP
Description: as §1
as §1, with “G12D” for “G120”, “reaction,” for “reaction.”
as §2, §3

WT KRAS [4] = target: T2, WT KRAS; test: Intrinsic nucleotide exchange assay, WT KRAS; type: biochemical; settings: for Intrinsic nucleotide exchange WT, single-dose test (effect / No effect): 25 microMolar ligand; for EC50: intrinsic nucleotide exchange, dose-response
Description: as §6

KRAS = KRAS (Homo sapiens, UniProt P01116, G12D); test: Microscale thermophoresis (MST) binding affinity to KRAS (Table 1); settings: 100 nM labeled KRAS, read-out: kD (dissociation constant)
Sequence of KRAS (P01116 whole entry G12D): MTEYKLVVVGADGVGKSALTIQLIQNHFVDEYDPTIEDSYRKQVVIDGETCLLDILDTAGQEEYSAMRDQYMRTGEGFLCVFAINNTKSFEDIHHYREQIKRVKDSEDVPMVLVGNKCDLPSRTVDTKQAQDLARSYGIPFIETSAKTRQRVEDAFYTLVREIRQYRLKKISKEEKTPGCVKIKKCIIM
Description: as §4, §5
Dissociation constants (IQ)) calculated from the thermophoresis results of selected compounds according to the present disclosure are presented in Table 1 below.
as §3

Sequence of wild type (WT) KRAS (P01116 1-188 isoform P01116-2): as the sequence (P01116 1-188 isoform P01116-2) above

Row | Compound | Kd (wild type (WT) KRAS) | SOS-mediated nucleotide exchange WT, single-dose test (effect / No effect) (WT KRAS [2]) | Kd (G12D KRAS [3]) | further results
1 | Cc1nn2c(N3CCN(CCO)CC3)cc(-c3ccncc3)nc2c1-c1ccccc1 [C22″] | – | no effect in single dose @ 25 uM | – | Kd (G12D KRAS [1]): > 100 µM
2 | Cc1nn2c(N3CCN(CCO)CC3)cc(-c3cc(F)cc(F)c3)nc2c1-c1ccccc1 [C33″] | – | No effect in single dose @ 25 uM | 79 ± 78 µM | Intrinsic nucleotide exchange WT, single-dose test (effect / No effect) (WT KRAS [4]): effect in single- dose @ 25 uM
3 | CCOC(=O)N1CCN(c2cc(-c3ccccc3)nc3c(-c4ccccc4)c(C)nn23)CC1 [C27″] | – | no effect in single dose @ 25 uM | – | –
4 | OCCN1CCN(c2cc(-c3ccccc3)nc3c(-c4ccccc4)c(C4CC4)nn23)CC1 [C29″] | – | effect in single- dose @ 25 uM | – | –
5 | Cc1nn2c(N3CCN(CCO)CC3)cc(-c3ccccc3)nc2c1-c1ccc(O)cc1 [C31″] | – | No effect in single dose @ 25 uM | – | Intrinsic nucleotide exchange WT, single-dose test (effect / No effect) (WT KRAS [4]): No effect in single dose @ 25 uM
6 | Cc1nn2c(N3CCN(CCO)CC3)cc(-c3nccn3C)nc2c1-c1ccccc1 [C23″] | – | effect in single- dose @ 25 uM | – | Kd (G12D KRAS [1]): > 200 µM; Intrinsic nucleotide exchange WT, single-dose test (effect / No effect) (WT KRAS [4]): effect in single- dose @ 25 uM
7 | CCc1nn2c(N3CCN(CCO)CC3)cc(-c3ccccc3)nc2c1-c1ccccc1 [C26″] | – | effect in single- dose @ 25 uM | – | Intrinsic nucleotide exchange WT, single-dose test (effect / No effect) (WT KRAS [4]): effect in single- dose @ 25 uM
8 | COc1ccccc1N1CCN(c2cc(-c3ccccc3)nc3c(-c4ccccc4)c(C)nn23)CC1 [Compound C7] | – | – | – | Kd (KRAS): > 86 µM
9 | COc1ccc(-c2cc(N3CCN(CCO)CC3)n3nc(C)c(-c4ccccc4)c3n2)cc1 [C25″] | – | effect in single- dose @ 25 uM | – | –
10 | OCCN1CCN(c2cc(-c3ccccc3)nc3c(-c4ccccc4)c(-c4ccccc4)nn23)CC1 [C14″] | 12.3 ± 0.1 µM | – | 11.2 ± 0.2 µM | Kd (G12D KRAS [1]): 0.88 ± 0.4 µM; EC50 (WT KRAS [4]): 12.4 ± 4.8 µM
11 | Cc1nn2c(NCCN(C)C)cc(-c3ccccc3)nc2c1-c1ccccc1 [Compound C4] | – | – | – | Kd (KRAS): 0.99 ± 0.14 µM
12 | COc1ccccc1N1CCN(c2cc(-c3ccccc3)nc3c(-c4ccccc4)c(C)nn23)CC1 [Compound C18] | – | – | – | Kd (G12D KRAS [1]): > 86 µM
13 | Cc1cc(N2CCN(CCO)CC2)n2nc(C)c(-c3ccccc3)c2n1 [C13″] | – | – | – | EC50 (WT KRAS [4]): 28.8 ± 4 µM; EC50 (WT KRAS [2]): 57.8 ± 4 µM
14 | OCCN1CCN(c2cc(-c3ccccc3)nc3c(-c4ccccc4)c(-c4ccccc4)nn23)CC1 [Compound C3] | – | – | – | Kd (KRAS): 0.88 ± 0.36 µM
15 | Cc1nn2c(N3CCN(CCO)CC3)cc(-c3ccccc3)nc2c1-c1ccccc1 [C11″] | – | – | 4.54 ± 0.1 µM | Kd (G12D KRAS [1]): 0.87 ± 0.1 µM
16 | Cc1nn2c(N3CCN(CCO)CC3)cc(-c3cc(O)cc(O)c3)nc2c1-c1ccccc1 [C35″] | 8.4 ± 0.2 µM | No effect in single dose @ 25 uM | 21.6 ± 4 µM | Intrinsic nucleotide exchange WT, single-dose test (effect / No effect) (WT KRAS [4]): effect in single- dose @ 25 uM
17 | Cc1nn2c(N3CCN(CCO)CC3)cc(-c3ccccc3)nc2c1-c1cc(F)cc(F)c1 [C28″] | 21.7 ± 0.4 µM | No effect in single dose @ 25 uM | 23.5 ± 0.8 µM | Intrinsic nucleotide exchange WT, single-dose test (effect / No effect) (WT KRAS [4]): effect in single- dose @ 25 uM
18 | Cc1cc(NCCN(C)C)n2nc(C)c(-c3ccccc3)c2n1 [Compound C16] | – | – | – | Kd (G12D KRAS [1]): > 200 µM
19 | OCCN1CCN(c2cc(-c3ccccc3)nc3c(-c4ccccc4)c(C(F)(F)F)nn23)CC1 [C32″] | – | effect in single- dose @ 25 uM | – | Intrinsic nucleotide exchange WT, single-dose test (effect / No effect) (WT KRAS [4]): effect in single- dose @ 25 uM
20 | Cc1nn2c(N3CCN(CCO)CC3)cc(-c3ccc(F)cc3)nc2c1-c1ccccc1 [C21″] | 4.6 ± 0.2 µM | – | 6.8 ± 0.5 µM | Kd (G12D KRAS [1]): 0.52 ± 0.2 µM; EC50 (WT KRAS [4]): 34 ± 6.4 µM; EC50 (WT KRAS [2]): 18.8 ± 3.3 µM
21 | Cc1nn2c(NCCN(C)C)cc(-c3ccccc3)nc2c1-c1ccccc1 [Compound C15] | – | – | – | Kd (G12D KRAS [1]): 0.99 ± 0.1 µM
22 | COCCN1CCN(c2cc(-c3ccccc3)nc3c(-c4ccccc4)c(C)nn23)CC1 [C17″] | – | – | – | Kd (G12D KRAS [1]): > 76 µM
23 | Cc1nn2c(N3CCN(CCO)CC3)cc(-c3ccc(O)cc3)nc2c1-c1ccccc1 [C30″] | 12.2 ± 0.4 µM | – | 18.4 ± 10 µM | EC50 (WT KRAS [2]): 15.9 ± 3.4 µM
24 | COCCN1CCN(c2cc(-c3ccccc3)nc3c(-c4ccccc4)c(C)nn23)CC1 [Compound C6] | – | – | – | Kd (KRAS): > 76 µM

Further lines, with some results ahead:

Row | Kd (wild type (WT) KRAS) | SOS-mediated nucleotide exchange WT, single-dose test (effect / No effect) (WT KRAS [2]) | Kd (G12D KRAS [3]) | Compound | further results
25 | 5 to 15 µM | – | – | Cc1cc2nc(-c3ccccc3)cc(N3CCN(CCO)CC3)n2n1 [Compound C44] | –
26 | 20.6 ± 0.4 µM | – | 22.4 ± 8 µM | OCCN1CCN(c2cc(-c3ccccc3)nc3c(-c4ccccc4)c(-c4cc[nH]c4)nn23)CC1 [Compound C36] | –
27 | 28.3 ± 5.4 µM | – | – | Cc1nn2c(NCCCN(C)C)cc(-c3ccccc3)nc2c1-c1ccccc1 [Compound C45] | –
28 | 63.1 ± 5.3 µM | – | 25.7 ± 0.2 µM | Cc1nn2c(N3CCC(CCO)CC3)cc(-c3ccccc3)nc2c1-c1ccccc1 [Compound C40] | –
29 | ~20 µM | – | – | Cc1nn2c(N3CCN(CCO)CC3)nc(-c3ccccc3)nc2c1-c1ccccc1 [Compound C41] | EC50 (WT KRAS [4]): 15 to 25 µM
30 | 5 to 15 µM | – | – | COCc1nn2c(N3CCN(CCO)CC3)cc(-c3ccccc3)nc2c1-c1ccccc1 [Compound C43] | –
31 | 19.1 ± 0.1 µM | – | 63.1 ± 5.3 µM | OCCN1CCN(c2cc(-c3ccccc3)nc3c(-c4ccccc4)c(-c4ccc(O)cc4)nn23)CC1 [Compound C38] | –
32 | 39.5 ± 1.9 µM | – | 22.9 ± 2.2 µM | Cc1nn2c(N3CCC(CCO)CC3)cc(-c3ccc(F)cc3)nc2c1-c1ccccc1 [Compound C39] | –
33 | 22.6 ± 0.3 µM | – | 11.8 ± 0.2 µM | COc1ccc(-c2nn3c(N4CCN(CCO)CC4)cc(-c4ccccc4)nc3c2-c2ccccc2)cc1 [Compound C37] | –
